In ChEMBL document CHEMBL2412988, “Synthesis, pH-dependent, and plasma stability of meropenem prodrugs for potential use against drug-resistant tuberculosis” (Bioorg Med Chem, 2013) one finds MIC data, which are given here for 1 compound.

As a reminder, the MIC is the least concentration at which growth counts as inhibited.

For the assay, the system named is Mycobacterium tuberculosis. Description: Antimycobacterial activity against extensively drug-resistant Mycobacterium tuberculosis in presence of clavulanate. Type of assay: functional.

Take `C[C@@H](O)[C@H]1C(=O)N2C(C(=O)O)=C(S[C@@H]3CN[C@H](C(=O)N(C)C)C3)[C@H](C)[C@H]12` [MEROPENEM]: the MIC turned out to be 0.03 µg/mL.
